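Grown in 96-well plates, cells were treated for 48 hours with each compound at five concentrations. Insufficient inhibition: endpoint recorded as highest concentration tested. GI50 is the concentration that inhibits growth by half.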 Calls of active or inactive are those of the source. No stated cut-off is given here; in the data, active = GI50 up to about 1.1 µM and inactive = higher.
Tests used:
Test in all cases: inhibition of tumour cell growth, NCI panel, 48 h
[1] = system: 786-0
[2] = system: A498
[3] = system: A549
[4] = system: ACHN
[5] = system: CAKI-1
[6] = system: CCRF-CEM
[7] = system: COLO 205
[8] = system: DLD-1
[9] = system: DMS-114
[10] = system: DMS-273
[11] = system: EKVX
[12] = system: HCC 2998
[13] = system: HCT-116
[14] = system: HCT-15
[15] = system: HL-60
[16] = system: HOP-18
[17] = system: HOP-62
[18] = system: HOP-92
[19] = system: HT-29
[20] = system: IGROV-1
[21] = system: K562
[22] = system: KM-20L2
[23] = system: KM12
[24] = system: LOX IMVI
[25] = system: LXFL 529
[26] = system: M14
[27] = system: M19-MEL
[28] = system: MOLT-4
[29] = system: Malme-3M
[30] = system: NCI-H226
[31] = system: NCI-H23
[32] = system: NCI-H460
[33] = system: NCI-H522
[34] = system: OVCAR-3
[35] = system: OVCAR-4
[36] = system: OVCAR-5
[37] = system: OVCAR-8
[38] = system: RPMI-8226
[39] = system: RXF 393
[40] = system: SF-268
[41] = system: SF-295
[42] = system: SF-539
[43] = system: SK-MEL-28
[44] = system: SK-MEL-2
[45] = system: SK-MEL-5
[46] = system: SK-OV-3
[47] = system: SN12C
[48] = system: SNB-19
[49] = system: SNB-75
[50] = system: SNB-78
[51] = system: SR
[52] = system: SW-620
[53] = system: TK-10
[54] = system: U-251
[55] = system: UACC-257
[56] = system: UACC-62
[57] = system: UO-31

Measured: GI50

Cc1ccc(NC(=O)CC2SC(Nc3ccc(Cl)cc3)=NC2=O)cc1C (configuration not stated)
15.2 µM: [14]
inactive: [1] 17.8 µM | [2] 23 µM | [3] 18.2 µM | [4] 16.1 µM | [5] 21.2 µM | [6] 3.24 µM | [7] 13.2 µM | [8] 18.9 µM | [9] 21 µM | [10] 19.7 µM | [11] 17.5 µM | [12] 18.6 µM | [13] 18.1 µM | [15] 3.12 µM | [16] 18.5 µM | [17] > 100 µM | [18] 14.4 µM | [19] 18.2 µM | [20] > 46.3 µM | [21] 3.75 µM | [22] 19.1 µM | [23] 19.9 µM | [24] 19.4 µM | [25] 19.5 µM | [26] 16.9 µM | [27] 17.7 µM | [28] 2.38 µM | [29] 18.5 µM | [30] > 47.2 µM | [31] 19 µM | [32] 13.5 µM | [33] 7.85 µM | [34] 18.9 µM | [35] 20.2 µM | [36] 19 µM | [37] 18 µM | [38] 6.47 µM | [39] 17.1 µM | [40] 18.3 µM | [41] > 44 µM | [42] 20.8 µM | [43] 19.5 µM | [44] 12.7 µM | [45] 20.3 µM | [46] > 49 µM | [47] 17.9 µM | [48] > 78.3 µM | [49] 17.7 µM | [50] 21.1 µM | [51] 6.59 µM | [52] 7.08 µM | [53] 17.3 µM | [54] 18.5 µM | [55] 15.9 µM | [56] 18.3 µM | [57] 18.6 µM

— ChEMBL document CHEMBL1201862, “PubChem BioAssay data set” (2004)
